Read-outs that look alike come from different tables or passages of the source.
Experiments:
P2Y12 receptor = molecular target: T1, P2Y12 receptor (Homo sapiens, UniProt Q9H244); assay: Example 2 substudy: platelet function by VerifyNow P2Y12 Assay; assay type: in vivo
T1 construct: from tissue; host or cells: platelets in whole blood of patients
Protocol: Platelet function parameters were measured using the VerifyNow® P2Y12 Assay (Accumetrics, San Diego, Calif.). Samples were taken before study drug administration, at approximately 2 hours (during cangrelor/placebo infusion), and 10 hours or next day following randomization.

platelets = assay: Example 4: platelet activation measured by flow cytometry; assay type: in vivo, human; settings: P-selectin expression, 1 μM ADP
Protocol: The study involved 12 patients who met the criteria of being 18-75 years of age, having coronary artery disease (CAD) documented by a previous MI or coronary revascularization, and taking 81 mg of aspirin daily. […] Prohibited concomitant medications included strong and potent CYP3A inhibitors, simvastatin and lovastatin at doses more than 40 mg/day, omeprazole or esomeprazole, and digoxin. Use of non-steroidal anti-inflammatory agents was discouraged during study participation but not prohibited.
Each patient was administered a 30 μg/kg bolus of cangrelor followed immediately by a 2 hr infusion at a rate of 4.0 μg/kg/min. A loading dose of ticagrelor (180 mg) was given after 0.5 hr or 1.25 hr (n=6 for each). Blood for pharmacodynamic platelet function studies was taken after 0.5 or 1.25 hr (corresponding to the time of ticagrelor load, n=6 for each), and then at 1.75, 2, 2.25, 2.5, 2.75, 3, 4, and 5.25 hr. Patients were assigned randomly to receive either 6 (n=6) or 7 (n=6) doses of ticagrelor to be taken every 12 hours following the discontinuation of the infusion of cangrelor. On study day 5, each patient was administered a 30 μg/kg bolus of cangrelor followed immediately by a 2 hr infusion at a rate of 4.0 μg/kg/min. Blood for pharmacodynamic assessment was taken after 1 and 2 hr. Adverse events were queried throughout study participation that ended with a telephone interview performed on study day 10-12.
Pharmacodynamic assessment included light transmission aggregometry (LTA), VerifyNow® P2Y12 assay, vasodilator-stimulated phosphoprotein (VASP) index, and platelet activation measured with the use of flow cytometry. Assessment of LTA, VerifyNow®, and platelet activation with the use of flow cytometry was performed within 30 min of blood being taken. In the case of flow cytometry, samples were processed to fixation and then batched for analysis. For VASP, index samples were batched and processed as recommended by the vendor within 2 h of blood being taken. This approach limited the time from fixation of VASP index to flow analysis to less than 1 h.
LTA induced by 5 μM and 20 μM adenosine diphosphate (ADP) was quantified ex vivo (i.e. in non-adjusted platelet rich plasma). Platelet-poor plasma was set as 100% aggregation, and both maximal (peak) and terminal (at 300 s) aggregation were measured with a PAP4 aggregometer (BioData, Horsham, Pa.). VerifyNow® P2Y12 assay (Accumetrics Inc, San Diego, Calif.) that measures the effects of drugs on the P2Y12 receptor by activating platelets with prostaglandin El in addition to ADP was used in accordance with the instructions provided by the manufacturer. Platelet reactivity was expressed in P2Y12 reaction units (PRU). Activation of platelets was identified with the use of flow cytometry as previously described.^17. And to determine the VASP index, a commercially available kit (Diagnostica Stago, Inc, Parsippany NJ) was used. ^17 Schneider D J, Sobel B E. Streamlining the design of promising clinical trials: in-vitro testing of antithrombotic regimens and multiple agonists of platelet activation. Coron Artery Dis. 2009; 20:175-8.

[1] = system: patients with atherosclerosis undergoing PCI; assay type: in vivo; settings: for Agitation (Psychiatric disorders) / Chest Pain (General disorders and administration site conditions) / Diarrhea (Gastrointestinal disorders) / Dyspnea (Respiratory, thoracic, and mediastinal disorders) / Procedural Pain (Injury, poisoning, and procedural complications): treatment emergent adverse event
Protocol: The primary safety end point was severe bleeding not related to coronary-artery bypass grafting, according to the Global Use of Strategies to Open Occluded Coronary Arteries (GUSTO) criteria, at 48 hours. Several other bleeding definitions were also applied.

[2] = Study Day 1, 1.75 h, Ticagrelor at 0.5 hr
[3] = Study Day 1, 1.75 h, Ticagrelor at 1.25 hr
[4] = Study Day 1, 2.0 h, Ticagrelor at 0.5 hr
[5] = Study Day 1, 2.0 h, Ticagrelor at 1.25 hr
[6] = Study Day 1, reference 0.5/1.25 h, All
[7] = Study Day 1, reference 0.5/1.25 h, Ticagrelor at 0.5 hr
[8] = Study Day 1, reference 0.5/1.25 h, Ticagrelor at 1.25 hr
[9] = Study Day 5, 1.0 h, Ticagrelor 6 doses
[10] = Study Day 5, 1.0 h, Ticagrelor 7 doses
[11] = Study Day 5, 2.0 h, Ticagrelor 6 doses
[12] = Study Day 5, 2.0 h, Ticagrelor 7 doses
[13] = 48 hours, Non-CABG Related Bleeding, Safety, Cangrelor vs Clopidogrel
[14] = 48 hours, Non-CABG Related Bleeding, Safety, n/N
[15] = 48 hours, Non-CABG Related Bleeding, Safety, rate in parentheses
[16] = 48 hours, Non-CABG Related, Safety, Cangrelor vs Clopidogrel
[17] = 48 hours, Non-CABG Related, Safety, n/N
[18] = 48 hours, Non-CABG Related, Safety, rate in parentheses
[19] = 48 hours, non-CABG-related, safety population, Cangrelor vs Clopidogrel
[20] = 48 hours, safety population, n/N

T1 sequence (Q9H244 whole entry): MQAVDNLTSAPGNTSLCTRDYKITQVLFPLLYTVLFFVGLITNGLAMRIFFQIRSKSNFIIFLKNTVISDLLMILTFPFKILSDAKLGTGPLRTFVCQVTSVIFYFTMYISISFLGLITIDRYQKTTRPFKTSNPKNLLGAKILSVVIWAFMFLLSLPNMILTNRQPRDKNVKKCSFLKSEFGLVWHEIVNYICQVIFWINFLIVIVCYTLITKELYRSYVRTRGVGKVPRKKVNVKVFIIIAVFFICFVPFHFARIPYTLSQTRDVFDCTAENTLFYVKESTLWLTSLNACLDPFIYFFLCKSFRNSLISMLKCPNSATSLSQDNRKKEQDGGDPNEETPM

## CSCCNc1nc(SCCC(F)(F)F)nc2c1ncn2[C@@H]1O[C@H](COP(=O)(O)OP(=O)(O)C(Cl)(Cl)P(=O)(O)O)[C@@H](O)[C@H]1O [Cangrelor, cangrelor]
P2Y12 receptor; 12-24 hours after discontinuation of the cangrelor infusion
  median PRU (VerifyNow P2Y12 assay): 228 PRU
P2Y12 receptor; during the study drug infusion (approx. 2 hours)
  median PRU (VerifyNow P2Y12 assay): 93.5 PRU
platelets; Study Day 1, 1.75 h, All
  Flow Cytometry IPR: 94 ± 5
  Flow Cytometry PR: 2.5 ± 1
platelets; [2]
  Flow Cytometry IPR: 96 ± 2
  Flow Cytometry PR: 2 ± 0.6
platelets; [3]
  Flow Cytometry IPR: 92 ± 7
  Flow Cytometry PR: 3 ± 1.1
platelets; Study Day 1, 2.0 h, All
  Flow Cytometry IPR: 89 ± 30
  Flow Cytometry PR: 3.8 ± 4.5
platelets; [4]
  Flow Cytometry IPR: 96 ± 2
  Flow Cytometry PR: 2.3 ± 0.8
platelets; [5]
  Flow Cytometry IPR: 83 ± 28
  Flow Cytometry PR: 5.3 ± 6.3
platelets; [6]
  Flow Cytometry IPR: 94 ± 4
  Flow Cytometry PR: 2.8 ± 1.2
platelets; [7]
  Flow Cytometry IPR: 94 ± 5
  Flow Cytometry PR: 3 ± 1.7
platelets; [8]
  Flow Cytometry IPR: 94 ± 3
  Flow Cytometry PR: 1.5 ± 0.5
platelets; Study Day 5, 1.0 h, All
  Flow Cytometry IPR: 92 ± 4
  Flow Cytometry PR: 4.1 ± 2.7
platelets; [9]
  Flow Cytometry IPR: 91 ± 3
  Flow Cytometry PR: 3.5 ± 1.4
platelets; [10]
  Flow Cytometry IPR: 93 ± 5
  Flow Cytometry PR: 4.7 ± 3.6
platelets; Study Day 5, 2.0 h, All
  Flow Cytometry IPR: 95 ± 3
  Flow Cytometry PR: 2.8 ± 1.3
platelets; [11]
  Flow Cytometry IPR: 93 ± 3
  Flow Cytometry PR: 2.7 ± 1.2
platelets; [12]
  Flow Cytometry IPR: 96 ± 2
  Flow Cytometry PR: 2.8 ± 1.5
[1]; 48 hours
  rate of GUSTO-defined severe bleeding (primary safety end point): 0.16%
[1]; [13]
  BARC criteria Type 3 OR: 1.69
  BARC criteria Type 3a OR: 2.75
  BARC criteria Type 3b OR: 1.12
  BARC criteria Type 3c OR: 2.00
[1]; [14]
  BARC criteria Type 3: 22/5529
  BARC criteria Type 3a: 11/5529
  BARC criteria Type 3b: 9/5529
  BARC criteria Type 3c: 2/5529
[1]; [15]
  BARC criteria Type 3: (0.4)
  BARC criteria Type 3a: (0.2)
  BARC criteria Type 3b: (0.2)
  BARC criteria Type 3c: (0.0)
[1]; [16]
  ACUITY criteria Major bleeding OR: 1.72
  ACUITY criteria Major without ≧ 5 cm hematoma OR: 1.62
  ACUITY criteria Minor bleeding OR: 1.42
[1]; [17]
  ACUITY criteria Major bleeding: 235/5529
  ACUITY criteria Major without ≧ 5 cm hematoma: 42/5529
  ACUITY criteria Minor bleeding: 653/5529
[1]; [18]
  ACUITY criteria Major bleeding: (4.3)
  ACUITY criteria Major without ≧ 5 cm hematoma: (0.8)
  ACUITY criteria Minor bleeding: (11.8)
[1]; 48 hours, cangrelor vs clopidogrel
  odds ratio, GUSTO-defined severe bleeding: 1.50
[1]; [19]
  GUSTO-defined moderate bleeding, Odds Ratio (95% CI): 1.69 (0.85-3.37)
  GUSTO-defined severe or life-threatening bleeding, Odds Ratio (95% CI): 1.50 (0.53-4.22)
  GUSTO-defined severe or moderate bleeding, Odds Ratio (95% CI): 1.63 (0.92-2.90)
  TIMI-defined major bleeding, Odds Ratio (95% CI): 1.00 (0.29)-3.45)
  TIMI-defined major or minor bleeding, Odds Ratio (95% CI): 1.75 (0.73-4.18)
  TIMI-defined minor bleeding, Odds Ratio (95% CI): 3.00 (0.81-11.10)
[1]; 48 hours, safety population, Cangrelor vs Clopidogrel
  Any blood transfusion, Odds Ratio (95% CI): 1.56 (0.83-2.93)
[1]; in vivo
  adverse events that led to discontinuation of the study drug: 0.5%
  rate of adverse events related to treatment: 20.2%
  transient dyspnea: 1.2%
[1]; 48 hours, safety population
  Agitation (Psychiatric disorders): (0.2) %
  Chest Pain (General disorders and administration site conditions): (1.0) %
  Diarrhea (Gastrointestinal disorders): (0.3) %
  Dyspnea (Respiratory, thoracic, and mediastinal disorders): (1.2) %
  Procedural Pain (Injury, poisoning, and procedural complications): (0.1) %
[1]; [20]
  Agitation (Psychiatric disorders): 11/5529
  Chest Pain (General disorders and administration site conditions): 55/5529
  Diarrhea (Gastrointestinal disorders): 15/5529
  Dyspnea (Respiratory, thoracic, and mediastinal disorders): 64/5529
  Procedural Pain (Injury, poisoning, and procedural complications): 4/5529

Reference: US8680052B1, “Methods of treating, reducing the incidence of, and/or preventing ischemic events” (The Medicines Company, priority 2013, dated 2014)
